Measured values published in the OligoGym collection.
HELM strings list units from the 5' end as sugar, base in round brackets, then linkage (d deoxyribose, r ribose, m 2'-O-methyl, p phosphodiester). Strings are as the collection lists them; they lack the last nucleoside at the 3' end of the tested compound. [moe] = 2'-O-(2-methoxyethyl) (MOE); [sp] = phosphorothioate linkage; [m5C] = 5-methylcytosine

Target: UBE3A-ATS
Assay: mouse, dose not given
Conditions: ASO

With “RNA1{[moe](G)[sp].[moe]([m5C])p.[moe](T)p.[moe](T)p.d([m5C])[sp].d(A)[sp].d([m5C])[sp].d([m5C])[sp].d(A)[sp].d(T)[sp].d(T)[sp].d(T)[sp].d(T)[sp].d(G)[sp].[moe](A)p.[moe]([m5C])p.[moe]([m5C])p.[moe](T)[sp].[moe](T)}$$$$ (last 3' nucleoside missing)” the 3 h FOB score was 0 score 0-7.

With “RNA1{[moe](G)[sp].[moe]([m5C])p.[moe](T)p.[moe]([m5C])[sp].d(A)[sp].d(G)[sp].d(T)[sp].d(T)[sp].d(A)[sp].d(G)[sp].d(G)[sp].d(T)[sp].[moe](T)p.[moe](A)p.[moe](G)p.[moe](T)[sp].[moe](G)}$$$$ (last 3' nucleoside missing)” the 3 h FOB score was 4 score 0-7.

“RNA1{[moe](G)[sp].[moe]([m5C])p.[moe](T)p.[moe]([m5C])p.[moe](A)[sp].d(G)[sp].d(T)[sp].d(T)[sp].d(A)[sp].d(G)[sp].d(G)[sp].d(T)[sp].d(T)[sp].[moe](A)p.[moe](G)p.[moe](T)[sp].[moe](G)}$$$$ (last 3' nucleoside missing)” gave a 3 h FOB score of 2.3 score 0-7.

Work on “RNA1{[moe](G)[sp].[moe]([m5C])p.[moe](T)p.[moe]([m5C])p.[moe](A)p.[moe](G)[sp].d(T)[sp].d(T)[sp].d(A)[sp].d(G)[sp].d(G)[sp].d(T)[sp].d(T)[sp].d(A)[sp].[moe](G)p.[moe](T)[sp].[moe](G)}$$$$ (last 3' nucleoside missing)” yielded a 3 h FOB score of 5 score 0-7.

Work on “RNA1{[moe](G)[sp].[moe]([m5C])p.[moe](T)p.[moe]([m5C])p.[moe](A)p.[moe](G)p.d(T)[sp].d(T)[sp].d(A)[sp].d(G)[sp].d(G)[sp].d(T)[sp].d(T)[sp].d(A)[sp].d(G)[sp].d(T)[sp].[moe](G)p.[moe]([m5C])[sp].[moe](A)}$$$$ (last 3' nucleoside missing)” yielded a 3 h FOB score of 4 score 0-7.

Work on “RNA1{[moe](G)[sp].[moe]([m5C])p.[moe](T)p.[moe]([m5C])p.[moe](A)p.d(G)[sp].d(T)[sp].d(T)[sp].d(A)[sp].d(G)[sp].d(G)[sp].d(T)[sp].d(T)[sp].d(A)[sp].d(G)[sp].[moe](T)p.[moe](G)p.[moe]([m5C])[sp].[moe](A)}$$$$ (last 3' nucleoside missing)” yielded a 3 h FOB score of 3.8 score 0-7.

Substance “RNA1{[moe](G)[sp].[moe]([m5C])p.[moe](T)p.[moe]([m5C])p.[moe](A)p.d(T)[sp].d([m5C])[sp].d(A)[sp].d([m5C])[sp].d(A)[sp].d(A)[sp].d([m5C])[sp].d(T)[sp].d(G)[sp].d(G)[sp].[moe](G)p.[moe](T)p.[moe](G)[sp].[moe](G)}$$$$ (last 3' nucleoside missing)” has a 3 h FOB score of 1 score 0-7.

For “RNA1{[moe](G)[sp].[moe]([m5C])p.[moe](T)p.[moe]([m5C])p.d(A)[sp].d(G)[sp].d(T)[sp].d(T)[sp].d(A)[sp].d(G)[sp].d(G)[sp].d(T)[sp].d(T)[sp].d(A)[sp].[moe](G)p.[moe](T)p.[moe](G)p.[moe]([m5C])[sp].[moe](A)}$$$$ (last 3' nucleoside missing)”, the 3 h FOB score was 4 score 0-7.

For “RNA1{[moe](G)[sp].[moe]([m5C])p.[moe]([m5C])p.[moe](A)[sp].d(G)[sp].d(G)[sp].d(T)[sp].d(G)[sp].d(T)[sp].d([m5C])[sp].d(T)[sp].d(T)[sp].[moe](A)p.[moe](T)p.[moe](A)p.[moe](T)[sp].[moe]([m5C])}$$$$ (last 3' nucleoside missing)”, the 3 h FOB score was 1 score 0-7.

“RNA1{[moe](G)[sp].[moe]([m5C])p.[moe]([m5C])p.[moe](A)p.[moe](G)[sp].d(G)[sp].d(T)[sp].d(G)[sp].d(T)[sp].d([m5C])[sp].d(T)[sp].d(T)[sp].d(A)[sp].[moe](T)p.[moe](A)p.[moe](T)[sp].[moe]([m5C])}$$$$ (last 3' nucleoside missing)” showed a 3 h FOB score of 0 score 0-7.

“RNA1{[moe](G)[sp].[moe]([m5C])p.[moe]([m5C])p.[moe](A)p.[moe](G)p.[moe](G)[sp].d(T)[sp].d(G)[sp].d(T)[sp].d([m5C])[sp].d(T)[sp].d(T)[sp].d(A)[sp].d(T)[sp].[moe](A)p.[moe](T)[sp].[moe]([m5C])}$$$$ (last 3' nucleoside missing)” was tested, and the 3 h FOB score was 0 score 0-7.

“RNA1{[moe](G)[sp].[moe]([m5C])p.[moe]([m5C])p.[moe](A)p.[moe](G)p.[moe](G)p.d(T)[sp].d(G)[sp].d(T)[sp].d([m5C])[sp].d(T)[sp].d(T)[sp].d(A)[sp].d(T)[sp].d(A)[sp].d(T)[sp].[moe]([m5C])p.[moe](T)[sp].[moe](A)}$$$$ (last 3' nucleoside missing)” was tested, and the 3 h FOB score was 0 score 0-7.

With “RNA1{[moe](G)[sp].[moe]([m5C])p.[moe]([m5C])p.[moe](A)p.[moe](G)p.d(G)[sp].d(T)[sp].d(G)[sp].d(T)[sp].d([m5C])[sp].d(T)[sp].d(T)[sp].d(A)[sp].d(T)[sp].d(A)[sp].[moe](T)p.[moe]([m5C])p.[moe](T)[sp].[moe](A)}$$$$ (last 3' nucleoside missing)” the 3 h FOB score was 0 score 0-7.

“RNA1{[moe](G)[sp].[moe]([m5C])p.[moe]([m5C])p.[moe](A)p.d(G)[sp].d(G)[sp].d(T)[sp].d(G)[sp].d(T)[sp].d([m5C])[sp].d(T)[sp].d(T)[sp].d(A)[sp].d(T)[sp].[moe](A)p.[moe](T)p.[moe]([m5C])p.[moe](T)[sp].[moe](A)}$$$$ (last 3' nucleoside missing)” gave a 3 h FOB score of 1 score 0-7.

“RNA1{[moe](G)[sp].[moe]([m5C])p.[moe]([m5C])p.[moe](T)p.[moe](G)p.d([m5C])[sp].d(T)[sp].d([m5C])[sp].d(A)[sp].d(A)[sp].d(A)[sp].d(T)[sp].d([m5C])[sp].d(T)[sp].d(G)[sp].[moe]([m5C])p.[moe](G)p.[moe](A)[sp].[moe](A)}$$$$ (last 3' nucleoside missing)” showed a 3 h FOB score of 2 score 0-7.

In the case of “RNA1{[moe](G)[sp].[moe]([m5C])p.[moe]([m5C])p.[moe](T)p.[moe](T)p.d(T)[sp].d([m5C])[sp].d(T)[sp].d(A)[sp].d(T)[sp].d(T)[sp].d(T)[sp].d([m5C])[sp].d(A)[sp].d(G)[sp].[moe](A)p.[moe]([m5C])p.[moe]([m5C])[sp].[moe](G)}$$$$ (last 3' nucleoside missing)”, the 3 h FOB score is reported as 1 score 0-7.

Substance “RNA1{[moe](T)[sp].[moe](A)p.[moe](A)p.[moe](A)p.[moe](A)p.d(T)[sp].d([m5C])[sp].d([m5C])[sp].d(A)[sp].d(T)[sp].d(T)[sp].d(T)[sp].d(G)[sp].d(T)[sp].d([m5C])[sp].[moe]([m5C])p.[moe](A)p.[moe](G)[sp].[moe](T)}$$$$ (last 3' nucleoside missing)” has a 3 h FOB score of 3.3 score 0-7.

“RNA1{[moe](T)[sp].[moe](A)p.[moe](A)p.[moe](A)p.[moe](A)p.d([m5C])[sp].d(G)[sp].d([m5C])[sp].d(A)[sp].d(A)[sp].d(T)[sp].d(G)[sp].d(T)[sp].d(A)[sp].d(T)[sp].[moe]([m5C])p.[moe](A)p.[moe](G)[sp].[moe](G)}$$$$ (last 3' nucleoside missing)” gave a 3 h FOB score of 1 score 0-7.

“RNA1{[moe](T)[sp].[moe](A)p.[moe](A)p.[moe](G)p.[moe](G)p.d(T)[sp].d([m5C])[sp].d(T)[sp].d(G)[sp].d(T)[sp].d(T)[sp].d(A)[sp].d(T)[sp].d(T)[sp].d([m5C])[sp].[moe](T)p.[moe]([m5C])p.[moe]([m5C])[sp].[moe]([m5C])}$$$$ (last 3' nucleoside missing)” was tested, and the 3 h FOB score was 0.8 score 0-7.

“RNA1{[moe](T)[sp].[moe](A)p.[moe](A)p.[moe](G)p.[moe](T)p.d(A)[sp].d(T)[sp].d(A)[sp].d(G)[sp].d(A)[sp].d(T)[sp].d(G)[sp].d([m5C])[sp].d([m5C])[sp].d(T)[sp].[moe]([m5C])p.[moe](T)p.[moe]([m5C])[sp].[moe]([m5C])}$$$$ (last 3' nucleoside missing)” showed a 3 h FOB score of 3.7 score 0-7.

With “RNA1{[moe](T)[sp].[moe](A)p.[moe](A)p.[moe]([m5C])p.[moe](T)p.d(G)[sp].d([m5C])[sp].d(T)[sp].d(T)[sp].d([m5C])[sp].d(A)[sp].d([m5C])[sp].d([m5C])[sp].d(A)[sp].d(T)[sp].[moe](T)p.[moe](T)p.[moe](T)[sp].[moe](G)}$$$$ (last 3' nucleoside missing)” the 3 h FOB score was 0 score 0-7.

“RNA1{[moe](T)[sp].[moe](A)p.[moe](G)p.[moe](A)p.[moe](T)p.d(T)[sp].d(G)[sp].d(G)[sp].d(G)[sp].d([m5C])[sp].d(T)[sp].d(T)[sp].d(T)[sp].d(A)[sp].d(G)[sp].[moe](A)p.[moe](G)p.[moe](G)[sp].[moe](T)}$$$$ (last 3' nucleoside missing)” was tested, and the 3 h FOB score was 5 score 0-7.

“RNA1{[moe](T)[sp].[moe](A)p.[moe](G)p.[moe](G)p.[moe](G)p.d(T)[sp].d(G)[sp].d(G)[sp].d(T)[sp].d(T)[sp].d(G)[sp].d(G)[sp].d(T)[sp].d(T)[sp].d([m5C])[sp].[moe](A)p.[moe](A)p.[moe](A)[sp].[moe](A)}$$$$ (last 3' nucleoside missing)” was tested, and the 3 h FOB score was 5.7 score 0-7.

In the case of “RNA1{[moe](T)[sp].[moe](A)p.[moe](G)p.[moe](G)p.[moe](T)p.[moe]([m5C])p.d(A)[sp].d(A)[sp].d([m5C])[sp].d([m5C])[sp].d(A)[sp].d(A)[sp].d(T)[sp].d(T)[sp].d(T)[sp].d(G)[sp].[moe]([m5C])p.[moe](T)[sp].[moe](A)}$$$$ (last 3' nucleoside missing)”, the 3 h FOB score is reported as 5 score 0-7.

“RNA1{[moe](T)[sp].[moe](A)p.[moe](G)p.[moe](G)p.[moe](T)p.d([m5C])[sp].d(A)[sp].d(A)[sp].d([m5C])[sp].d([m5C])[sp].d(A)[sp].d(A)[sp].d(T)[sp].d(T)[sp].d(T)[sp].[moe](G)p.[moe]([m5C])p.[moe](T)[sp].[moe](A)}$$$$ (last 3' nucleoside missing)” gave a 3 h FOB score of 0 score 0-7.

For “RNA1{[moe](T)[sp].[moe](A)p.[moe](G)p.[moe](G)p.[moe]([m5C])p.d(T)[sp].d(G)[sp].d(G)[sp].d(G)[sp].d([m5C])[sp].d([m5C])[sp].d(T)[sp].d([m5C])[sp].d(A)[sp].d(G)[sp].[moe]([m5C])p.[moe](G)p.[moe](T)[sp].[moe](A)}$$$$ (last 3' nucleoside missing)”, the 3 h FOB score was 3.5 score 0-7.

Work on “RNA1{[moe](T)[sp].[moe](A)p.[moe](G)p.[moe](G)p.d(T)[sp].d([m5C])[sp].d(A)[sp].d(A)[sp].d([m5C])[sp].d([m5C])[sp].d(A)[sp].d(A)[sp].d(T)[sp].d(T)[sp].[moe](T)p.[moe](G)p.[moe]([m5C])p.[moe](T)[sp].[moe](A)}$$$$ (last 3' nucleoside missing)” yielded a 3 h FOB score of 0 score 0-7.
